Earlier results on 1 molecule are cited in US8263645B2, “Disodium cromoglycate compositions and methods for administering same” (PARI Pharma GmbH, priority 2006, dated 2012).

Data set [1] has as its system intermediate conductance chloride channels. The settings on record: channels activated following immunological stimulation.
For data set [2] the following is noted: timed urine collections.

Where two headings read alike, the source gives them in different places.

Turning to `O=C([O-])c1cc(=O)c2c(OCC(O)COc3cccc4oc(C(=O)[O-])cc(=O)c34)cccc2o1.[Na+].[Na+]` [DSCG, disodium cromoglycate], the histamine release result in the data set with rat mast cells (following antigen challenge) was “inhibition of histamine release”. Further, the “influx of calcium ions” value in the data set on rat mast cells (rat mast cells) was “inhibited the influx of calcium ions”. Besides, the chloride channel block result in data set [1] is “block intermediate conductance chloride channels”. In addition, the lung deposition in data set [2] (20 mg DSCG via Acron nebulizer (MMD=4.5 μm)) is 1.5%; in data set [2] (20 mg DSCG via pMDI), 0.3%.
